In US4174402A, “Method for the prophylaxis of SRS-A-induced symptoms” (priority 1978, dated 1979):
Like-named read-outs stand apart in the source and are kept apart here.

How the values were obtained:
SRS-A [1] = test: Test Procedure 1: antagonism of SRS-A-induced bronchoconstriction in unanesthetized guinea pigs; type: in vivo, guinea pig; conditions: for ED50: Cavia porcellus, po, read-out: AED50; for ED50 / Potency (Phenylbutazone = 1) (95% confidence limits): 1 hour before SRS-A; for Potency (Phenylbutazone = 1) (95% confidence limits): p.o.
Description: The test compounds were administered orally to four guinea pigs/group 1 hour before the SRS-A challenge. The test compounds were prepared as suspensions in 1% gum tragacanth. Bronchoconstriction was graded 1+ to 3+ according to severity (1+ denoted restlessness and slight thoracic dyspnea, 2+ denoted moderate thoracic dyspnea and 3+ denoted convulsive dyspnea, regardless of whether the guinea pig died of asphyxiation or recovered).

bradykinin [2] = conditions: guinea pigs; cited from earlier work
serotonin [3] = conditions: guinea pig, in vivo; cited from earlier work
SRS-A [4] = conditions: guinea pigs; cited from earlier work
acetylcholine [5] = conditions: guinea pig, in vivo; cited from earlier work
SRS-A [6] = test: Test Procedure 3: SRS-A-induced increase in resistance to pulmonary inflation in anesthetized cats; type: in vivo, cat
bradykinin [7] = system: bradykinin
Description: Antagonism of bradykinin-induced bronchoconstriction in guinea pigs was determined by measuring increases in resistance to artificial pulmonary inflation (Konzett-Rossler preparation). […] Due to large variations in bronchoconstricting responses among individual guinea pigs, each guinea pig serves as its own control and was challenged with bradykinin twice. The second response to bradykinin was expressed as percent of the first response to bradykinin. […] All guinea pigs having a first bradykinin response of less than 12 mm Hg were rejected as poor responders. […] In order to augment the bronchoconstrictor response, each guinea pig received 100 mcg propranolol/kg, iv, 5 minutes before the first injection of bradykinin (30 mcg/kg, iv). […] Five minutes after the injection of a test compound the guinea pigs received the second injection of bradykinin and the peak of the response determined. The effects of both test compounds were expressed as % inhibition of bradykinin-induced increase in bronchial resistance to forced inflation, as compared to the levels of bronchial resistance following iv administration of their respective solvent controls.

SRS-A [8] = test: Test Procedure 3: SRS-A-induced increase in resistance to pulmonary inflation in anesthetized cats; type: in vivo, cat; remark: listed apart in the source
Description: The trachea of each cat was cannulated, and the cats were artificially respired at 15 strokes/minute with a stroke volume of 22 ml/kg. A side-arm of the intratracheal cannula was connected to a Statham transducer, and the intratracheal pressure was recorded continuously on a polygraph. One femoral vein was cannulated in all cats receiving intravenous administration of drugs. In addition, most of the cats were cannulated through the femoral artery; this cannula was attached to another Statham transducer, and the blood pressure of these cats recorded. All cats received 1.0 mg/kg of propranolol and 0.2 mg/kg of thenyldiamine intravenously 3 minutes before iv injection of SRS-A. SRS-A was obtained from rat peritoneal cavities as described previously in Test Procedure 1. Each pool of rat ip fluid containing SRS-A was dose-ranged and a dose selected that was estimated to cause an average increase in intrapulmonary resistance to inflation in control cats by 4-6 mmHg. Test dose volumes ranged from 1.0 to 2.0 ml/kg, iv. […] Both test compounds and the sodium hydroxide vehicle were injected iv 5 minutes before the injections of SRS-A (2 minutes before the injection of propranolol and thenyldiamine).

SRS-A [9] = test: Test Procedure 2: inhibition of SRS-A-induced bronchoconstriction in anesthetized guinea pigs (Konzett-Rossler); type: in vivo, guinea pig; conditions: for inhibition of SRS-A-induced increases in resistance to inflation: intravenous
Excerpt: SRS-A was harvested as described in Test Procedure 1 described hereinabove. A slightly modified Konzett-Rossler preparation [Arch. […] Guinea pigs weighing 350 to 450 g were anesthetized ip with 1.5 g/kg urethane. The jugular vein and trachea were cannulated and the guinea pigs were artificially respired at a rate of 40 strokes/minute. […] A side arm of the inflationary air cannula was connected to a pressure transducer and resistance to pulmonary inflation continuously recorded. […] Studies with SRS-A commenced after each guinea pig had attained maximum bronchoconstrictor response to histamine. […] The effects of the test compounds were studied by measuring SRS-A-induced bronchoconstriction side-by-side in two guinea pigs, one medicated and one control. Subsequent medicated/control pairs were alternated on two respiratory pumps. In this manner, the gradual decomposition of SRS-A and differences between the two pump/recorder systems, if any, were controlled. The dose (volume) of each sample of SRS-A was adjusted in each pair to keep the peaks of increases in bronchial resistance in control guinea pigs within 13 to 40 mmHg. Bronchoconstriction following injection of SRS-A was measured two ways; as the peak increase in resistance to inflation and, in view of the occasional irregular bronchoconstriction response curves following injection of SRS-A, as the sum of increases in bronchoconstriction over 10 minutes (pressure/time units). Pressure/time units were calculated by measuring the area under the curve of inflationary resistance where ordinates were set at 10 mm of pen excursion/10 mm pressure Hg and the abscissas were set at 15 mm of paper travel/minute. […] SRS-A-induced bronchoconstriction (increase in resistance) was calculated as the area under the curve and over the normal base line of resistance to inflation. […] The effects of the test compounds upon SRS-A-induced bronchoconstriction were expressed as ratios of the peaks and as ratios of the pressure/time units between the paired medicated and control guinea pigs. The consistency of paired responses to SRS-A in nonmedicated guinea pigs was determined in the same manner, by alternating the ratios of the results of guinea pigs on pumps one and two. […] SRS-A was injected 5 minutes after these latter injections. Compound b was prepared as a solution in 2% N-methylglucamine and used within 3 hours. […] Control guinea pigs received injections of the respective solvent vehicles. In order to compare the activities of compound b following iv and po routes of administration, compound b was also administered orally. […] Control guinea pigs received 2% N-methylglucamine. Fifteen minutes later, the guinea pigs were anesthetized, cannulated, and prepared for injections of SRS-A as described. The procedure was timed so that SRS-A was injected 1 hour after the oral administration of compound b. In a separate experiment, using the same methodology, the duration anti-SRS-A activity of compound b was determined after oral administration. Compound b was finely ground in a tissue homogenizer and prepared as a suspension in 0.5% gum tragacanth. A dose of 10 mg/kg was administered and anti-SRS-A effect studied at 1, 4 and 7 hr postmedication. The ratios of peak increases in intratracheal pressure between paired medicated and control guinea pigs was used to calculate percent inhibition.

acetylcholine [10] = test: Test Procedure 7: acetylcholine-induced bronchoconstriction in anesthetized guinea pigs; type: in vivo, guinea pig; conditions: 100 mg/kg p.o.
Description: Guinea pigs, weighing 250-350 g were anesthetized with 1.5 g/kg i.p. of urethane and prepared for measurements of resistance to pulmonary inflation using a slightly modified Konzett-Rossler preparation (see Test Procedure 2). Histamine phosphate (5 μg/kg as base) was injected four times at 5 minute intervals in order to ascertain that the maximum bronchoconstrictor responsiveness has been obtained. Acetylcholine was injected intravenously at […] 5 minutes following the last injection of histamine and the increase in intratracheal pressure was recorded. Compound b or aminophylline (100 mg/kg p.o.) or the control vehicle were administered to five guinea pigs each, 1 hour before the injection of acetylcholine (1/2 hour before the anesthesia).

serotonin [11] = test: Test Procedure 6: serotonin-induced bronchoconstriction in anesthetized guinea pigs; type: in vivo, guinea pig; conditions: iv 5.0 mg/kg; P 0.01
Description: Guinea pigs, weighing 275-340 g, were anesthetized and prepared for measurements of resistance to pulmonary inflation using a slightly modified Konzett-Rossler method (see Test Procedure 2). All guinea pigs received 0.1 mg/kg of propranolol iv and 5 minutes later, 50 mcg/kg of serotonin (creatinine complex) iv. Compound b or cyproheptadine were administered iv just before the injection of propranolol at 50 or 5 mg/kg, respectively. Compound b was prepared as a 5% solution in 5% N-methylglucamine and cyproheptadine as a 0.25% aqueous solution.

## Cc1ccc(C(=O)n2c3c(c4ccccc42)C(C(=O)O)CCC3)cc1 (stereo not shown) [d, 9-(4-toluoyl)-1,2,3,4-tetrahydrocarbazole-4-carboxylic acid]
SRS-A [1]
  ED50: 5 mg/kg
  Potency (Phenylbutazone = 1) (95% confidence limits): 1.7 (0.6-6.8)

## CC(=O)Oc1ccccc1C(=O)O [aspirin]
Bradykinin [2]
  effect on bradykinin-induced bronchoconstriction: inhibit
Serotonin [3]
  effect on serotonin-induced bronchoconstriction: ineffective
SRS-A [4]
  effect on SRS-A-induced bronchoconstriction: inhibit
Acetylcholine [5]
  effect on acetylcholine-induced bronchoconstriction: ineffective

## CCCCC1C(=O)N(c2ccccc2)N(c2ccccc2)C1=O [Phenylbutazone, phenylbutazone, reference compound]
SRS-A [6]; Felis catus, 5 min, intravenous, read-out: iv AED50
  ED50: 16 mg/kg
SRS-A [6]; intravenous 33.0 mg/kg
  Max. Increase in Resistance to Pulm. Inflation, mm Hg ± S.E.: 0 mm Hg
SRS-A [6]; oral 10.0 mg/kg
  % Inhibition: 25%
  Max. Increase in Resistance to Pulm. Inflation, mm Hg ± S.E.: 3.0 ± 0.9 mm Hg
SRS-A [6]; oral 33.0 mg/kg
  % Inhibition: 98%
  Max. Increase in Resistance to Pulm. Inflation, mm Hg ± S.E.: 0.1 ± 0.1 mm Hg
Bradykinin [2]
  effect on bradykinin-induced bronchoconstriction: inhibit
Serotonin [3]
  effect on serotonin-induced bronchoconstriction: ineffective
SRS-A [1]; 1.6 mg/kg p.o.
  Incidence of Severe Bronchospasms, %: 62%
  Incidence of Severe Bronchospasms, No. Bronchosp./No. Tested: 47/77
SRS-A [1]; 6.2 mg/kg p.o.
  Incidence of Severe Bronchospasms, %: 34%
  Incidence of Severe Bronchospasms, No. Bronchosp./No. Tested: 29/86
SRS-A [1]; 25 mg/kg p.o.
  Incidence of Severe Bronchospasms, %: 15%
  Incidence of Severe Bronchospasms, No. Bronchosp./No. Tested: 21/147
SRS-A [1]; 100 mg/kg p.o.
  Incidence of Severe Bronchospasms, %: 4%
  Incidence of Severe Bronchospasms, No. Bronchosp./No. Tested: 2/46
Bradykinin [7]; iv 33 mg/kg, remaining five guinea pigs
  inhibition of bradykinin-induced bronchoconstriction: further dose-related inhibition
Bradykinin [7]; iv 3.3 and 10 mg/kg
  inhibition of bradykinin-induced increase in bronchial resistance: significantly inhibited
SRS-A [4]
  effect on SRS-A-induced bronchoconstriction: inhibit
SRS-A [8]; intravenous 10.1 mg/kg
  % Inhibition: 21%
  Max. Increase in Resistance to Pulm. Inflation, mm Hg ± S.E.: 4.7 ± 1.5 mm Hg
SRS-A [8]; intravenous 33 mg/kg
  inhibition of SRS-A-induced increase in resistance to inflation: complete inhibition
SRS-A [8]; intravenous 33.0 mg/kg
  % Inhibition: 100%
SRS-A [9]; i.v. 1.0 mg/kg
  % Inhibition (peak increase in resistance): 0%
  % Inhibition (sum of increase in resistance over 10 min): 0%
SRS-A [9]; i.v. 3.3 mg/kg
  % Inhibition (peak increase in resistance): 59%
  % Inhibition (sum of increase in resistance over 10 min): 56%
SRS-A [9]; i.v. 10 mg/kg
  % Inhibition (peak increase in resistance): 72%
  % Inhibition (sum of increase in resistance over 10 min): 81%
SRS-A [9]; i.v. 33 mg/kg
  % Inhibition (peak increase in resistance): 89%
  % Inhibition (sum of increase in resistance over 10 min): 90%
SRS-A [9]
  inhibition of SRS-A-induced increases in resistance to inflation: inhibited SRS-A-induced increases in resistance to inflation in a dose-related manner
SRS-A [9]; 10 and 33 mg/kg
  inhibition of SRS-A-induced increases in resistance to inflation: nearly complete inhibition
Acetylcholine [5]
  effect on acetylcholine-induced bronchoconstriction: ineffective

## O=C(O)C1CCCc2c1c1ccccc1n2C(=O)c1ccccc1 (stereo not shown) [c, 9-benzoyl-1,2,3,4-tetrahydrocarbazole-4-carboxylic acid]
SRS-A [1]
  ED50: 0.3 mg/kg
  Potency (Phenylbutazone = 1) (95% confidence limits): 16 (6.9-37)

## O=C(O)C1CCc2c(c3ccccc3n2C(=O)c2ccccc2)C1 (stereo not shown) [a, 9-benzoyl-1,2,3,4-tetrahydrocarbazole-3-carboxylic acid]
SRS-A [1]
  ED50: 10 mg/kg
  Potency (Phenylbutazone = 1) (95% confidence limits): 1.1 (0.53.8)

## CCCCC1C(=O)N(c2ccccc2)N(c2ccccc2)C1=O [Na Phenylbutazone]
Bradykinin [7]; iv 1.0 mg/kg
  % Inhibition: 20%
  Average Increase In Bronchial Resistance (2nd Response in % of 1st Response ± S.E.): 64 ± 12%
Bradykinin [7]; iv 3.3 mg/kg
  % Inhibition: 50%
  Average Increase In Bronchial Resistance (2nd Response in % of 1st Response ± S.E.): 40 ± 9%
Bradykinin [7]; iv 10.0 mg/kg
  % Inhibition: 56%
  Average Increase In Bronchial Resistance (2nd Response in % of 1st Response ± S.E.): 35 ± 11%
Bradykinin [7]; iv 33.0 mg/kg
  % Inhibition: 50%
  Average Increase In Bronchial Resistance (2nd Response in % of 1st Response ± S.E.): 40 ± 7%

## Cn1c(=O)c2[nH]cnc2n(C)c1=O [Aminophylline, aminophylline, reference compound]
Acetylcholine [10]
  % Inhibition: 70%
  Peak Increase in Intracheal Pressure, mm Hg: 7 ± 1 mm Hg
  effect against acetylcholine-induced bronchoconstriction: inhibition of acetylcholine responses

## CN1CCC(=C2c3ccccc3C=Cc3ccccc32)CC1 [Cyproheptadine, cyproheptadine, reference compound]
Serotonin [11]
  Increase in Resistance (mm Hg): 5 ± 1 mm Hg
  Inhibition %: 89%

## COc1ccc2c(c1)c1c(n2C(=O)c2ccccc2)CCCC1C(=O)O (stereo not shown) [e, 9-benzoyl-6-methoxy-1,2,3,4-tetrahydrocarbazole-4-carboxylic acid]
SRS-A [1]
  ED50: 1 mg/kg
  Potency (Phenylbutazone = 1) (95% confidence limits): 18 (5.0-86)

## Cc1ccc2c(c1)c1c(n2C(=O)c2ccccc2)CCCC1C(=O)O (stereo not shown) [f, 9-benzoyl-6-methyl-1,2,3,4-tetrahydrocarbazole-4-carboxylic acid]
SRS-A [1]
  ED50: 1.7 mg/kg
  Potency (Phenylbutazone = 1) (95% confidence limits): 6.7 (3.2-16)
